Tested on: patients with moderate to severe chronic low back pain
Assay: Opioid Associated Adverse Event Score (OAAES), low back pain study
Type: in vivo, human
Settings: through the treatment period; ITT population
Text: The OAAES is a derived measure using the maximum severity for each of six opioid-associated adverse events (constipation, nausea, vomiting, dizziness, somnolence, and pruritis). For each patient, a maximum severity score (mild=1, moderate=2, and severe=3) was summed for each of the six treatment emergent opioid-associated adverse events that were present. […]

Q: `COc1ccc2c3c1O[C@H]1C(=O)CC[C@@]4(O)[C@@H](C2)N(C)CC[C@]314` [OXY QID, oxycodone] was tested. Which “Opioid Associated Adverse Event Score (OAAES), maximum” value did it give?
A: The value was 16.0.

Q: And the “Opioid Associated Adverse Event Score (OAAES), mean (SD)” value?
A: The value was 5.6 (3.95).

Q: What about the “Opioid Associated Adverse Event Score (OAAES), median” value of the same compound?
A: Its value is 5.0.

Q: What about the “Opioid Associated Adverse Event Score (OAAES), minimum” value of the same compound?
A: Its value is 0.0.

From patent US20060009478A1, “Methods for the treatment of back pain” (priority 2003, published 2006)
